IC50 data for 33 molecules are collected here from patent US11459324B2, “O-glycoprotein-2-acetamido-2-deoxy-3-D-glycopyranosidase inhibitors” (BIOGEN MA INC., priority 2018, dated 2022).

The IC50 is the concentration that gives 50% inhibition.

Some results are limits rather than exact numbers.

The assay has as its target T1, Recombinant full length human OGA enzyme (Homo sapiens, UniProt O60502).
T1 construct: Recombinant full length human OGA enzyme was purchased from Origene; purchased Origene
T1 sequence (O60502 1-916): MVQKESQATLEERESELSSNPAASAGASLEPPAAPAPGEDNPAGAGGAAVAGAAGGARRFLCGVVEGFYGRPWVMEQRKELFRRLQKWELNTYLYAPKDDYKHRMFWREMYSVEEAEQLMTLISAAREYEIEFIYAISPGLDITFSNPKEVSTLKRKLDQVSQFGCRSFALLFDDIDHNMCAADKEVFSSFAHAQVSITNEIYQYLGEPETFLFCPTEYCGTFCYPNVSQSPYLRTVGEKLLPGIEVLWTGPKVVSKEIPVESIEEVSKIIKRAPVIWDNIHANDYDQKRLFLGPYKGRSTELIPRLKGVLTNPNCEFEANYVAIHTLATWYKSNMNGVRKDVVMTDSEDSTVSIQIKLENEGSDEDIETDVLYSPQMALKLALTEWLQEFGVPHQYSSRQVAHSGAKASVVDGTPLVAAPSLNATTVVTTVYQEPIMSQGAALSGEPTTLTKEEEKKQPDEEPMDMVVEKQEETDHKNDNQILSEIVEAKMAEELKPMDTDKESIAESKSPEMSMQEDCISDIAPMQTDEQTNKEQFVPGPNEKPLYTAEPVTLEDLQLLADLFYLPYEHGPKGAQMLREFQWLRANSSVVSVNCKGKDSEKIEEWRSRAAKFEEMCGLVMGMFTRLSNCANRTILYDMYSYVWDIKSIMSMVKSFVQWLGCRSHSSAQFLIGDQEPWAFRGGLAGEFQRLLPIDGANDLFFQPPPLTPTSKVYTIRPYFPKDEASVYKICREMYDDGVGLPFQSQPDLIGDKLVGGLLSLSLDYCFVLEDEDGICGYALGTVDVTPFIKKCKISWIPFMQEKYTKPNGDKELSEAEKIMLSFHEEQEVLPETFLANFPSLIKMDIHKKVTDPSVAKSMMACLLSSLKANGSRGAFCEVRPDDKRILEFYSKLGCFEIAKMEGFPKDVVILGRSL
Description: OGA Enzyme Inhibition Biochemical Assay. Particulars: 1 nM OGA, 100 μM 4-MUGlcNAc (Km), pH 6.4, 90 minutes at room temperature, 10-point dose-response from 20 μM. The procedure, abridged: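 Full-length human OGA at 1 nM with 100 μM 4-MUGlcNAc (Km) in McIlvaine buffer pH 6.4 plus 0.01% BSA, 90 min at room temperature, then glycine pH 10 quench. Fluorescence read at Ex 355/Em 460 nm. 10-point, 4-fold dose-response from 20 μM, 4-parameter variable-slope fit.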
In the case of `COc1cncc(CC2CCN(Cc3cnc(NC(C)=O)s3)C2)c1` (stereo not drawn) [Example 1-20, N-(5-((3-((5-methoxypyridin-3-yl)methyl)pyrrolidin-1-yl)methyl)thiazol-2-yl)acetamide], the IC50 was 69 nM.

As for `CC(=O)Nc1ncc(CN2CCCC(Cc3ncccc3C(F)(F)F)C2)s1` (stereo not drawn) [Example 1-46, N-(5-((3-((3-(trifluoromethyl)pyridin-2-yl)methyl)piperidin-1-yl)methyl)thiazol-2-yl)acetamide], the IC50 was found to be 25 nM.

For `CC(=O)Nc1ncc(CN2CC[C@H](Cc3nccc(C)n3)C2)s1` [Example 3-10, (R)-N-(5-((3-((4-methylpyrimidin-2-yl)methyl)pyrrolidin-1-yl)methyl)thiazol-2-yl)acetamide], the IC50 amounted to 14 nM.

As to `CC(=O)Nc1ncc(CN2CCCC(Cn3cncn3)C2)s1` (stereo not drawn) [Example 4-21, N-(5-((3-((1H-1,2,4-triazol-1-yl)methyl)piperidin-1-yl)methyl)thiazol-2-yl)acetamide], the concentration for half-maximal inhibition (IC50) is 38 nM.

As for `CC(=O)Nc1nc(F)c(CN2CC[C@H](Cc3cc(C)ncc3F)C2)s1` [Example 3-28, (S)—N-(4-fluoro-5-((3-((5-fluoro-2-methylpyridin-4-yl)methyl)pyrrolidin-1-yl)methyl)thiazol-2-yl)acetamide], the IC50 turned out to be 8.3 nM.

Consider `CCC(=O)Nc1nc(F)c(CN2CCC[C@H](Cc3ncc(F)cn3)C2)s1` [Example 3-17, (R)-N-(4-fluoro-5-((3-((5-fluoropyrimidin-2-yl)methyl)piperidin-1-yl)methyl)thiazol-2-yl)propionamide], for which the IC50 was determined as 1.2 nM.

With `CC(=O)Nc1ncc(CN2C[C@@H](Cc3ncc(F)cn3)C[C@H]2C(F)(F)F)s1` (single isomer, unassigned) [Example 2-45], the half-maximal inhibitory concentration (IC50) was 130 nM.

In the case of `CC(=O)Nc1ncc(CN2CCCC(Cc3ncc(F)cn3)C2C)s1` (stereo not drawn) [Example 2-41, N-(5-((3-((5-fluoropyrimidin-2-yl)methyl)-2-methylpiperidin-1-yl)methyl)thiazol-2-yl)acetamide], the IC50 was 510 nM.

As for `CC(=O)Nc1ncc(CN2CC[C@H](C)[C@@H](Cc3ncc(F)cn3)C2)s1` (single isomer, unassigned) [Example 2-37], the IC50 was 2 nM.

For `CC(=O)Nc1ncc(CN2C[C@H](Cc3ncc(F)cn3)CC[C@H]2C)s1` (single isomer, unassigned) [Example 2-27], the half-maximal inhibitory concentration (IC50) was under 1 nM.

Turning to `COc1ccc(CC2CCCN(Cc3cnc(NC(C)=O)s3)C2)cn1` (stereo not drawn) [Example 1-11, N-(5-((3-((6-methoxypyridin-3-yl)methyl)piperidin-1-yl)methyl)thiazol-2-yl)acetamide], the half-maximal inhibitory concentration (IC50) turned out to be 4 nM.

With `CC(=O)Nc1ncc(CN2CCCC(Cc3csc(C)n3)C2)s1` (stereo not drawn) [Example 1-36, N-(5-((3-((2-methylthiazol-4-yl)methyl)piperidin-1-yl)methyl)thiazol-2-yl)acetamide], the IC50 stood at 30 nM.

For `COc1cc(CC2CCCN(Cc3cnc(NC(C)=O)s3)C2)ccn1` (stereo not drawn) [Example 1-7, N-(5-((3-((2-methoxypyridin-4-yl)methyl)piperidin-1-yl)methyl)thiazol-2-yl)acetamide], the IC50 was 3 nM.

As to `COc1nc(C[C@H]2CCCN(Cc3cnc(NC(C)=O)s3)C2)nc(C)c1F` [Example 3-8, (R)-N-(5-((3-((5-fluoro-4-methoxy-6-methylpyrimidin-2-yl)methyl)piperidin-1-yl)methyl)thiazol-2-yl)acetamide], the half-maximal inhibitory concentration (IC50) was 1 nM.

Consider `CC(=O)Nc1nc(F)c(CN2CC[C@H](Cc3cc(C)nc(C)c3)C2)s1` [Example 3-24, (S)—N-(5-((3-((2,6-dimethylpyridin-4-yl)methyl)pyrrolidin-1-yl)methyl)-4-fluorothiazol-2-yl)acetamide], for which the IC50 is under 1 nM.

Take `CC(=O)Nc1ncc(CN2CC(Cc3ncc(F)cn3)CC[C@@H]2C(F)(F)F)s1` (stereo partly drawn) [Example 2-50]: the IC50 amounted to 270 nM.

For `COc1cccc(CC2CCCN(Cc3cnc(NC(C)=O)s3)C2)c1` (stereo not drawn) [Example 1-3, N-(5-((3-(3-methoxybenzyl)piperidin-1-yl)methyl)thiazol-2-yl)acetamide], the half-inhibitory concentration (IC50) amounted to 33 nM.

On to `CC(=O)Nc1ncc(CN2CCC(Cc3cncc(F)c3)C2)s1` (stereo not drawn) [Example 1-24, N-(5-((3-((5-fluoropyridin-3-yl)methyl)pyrrolidin-1-yl)methyl)thiazol-2-yl)acetamide], for which the 50% inhibitory concentration (IC50) came out at 31 nM.

For the molecule `CC(=O)Nc1ncc(CN2CCCC(Cc3ccc(F)cc3)C2)s1` (stereo not drawn) [Example 1-1, N-(5-((3-(4-fluorobenzyl)piperidin-1-yl)methyl)thiazol-2-yl)acetamide], the IC50 came out at 60 nM.

Regarding `CC(=O)Nc1ncc(CN2CCCC(Cc3cncc(C(F)(F)F)c3)C2)s1` (stereo not drawn) [Example 1-30, N-(5-((3-((5-(trifluoromethyl)pyridin-3-yl)methyl)piperidin-1-yl)methyl)thiazol-2-yl)acetamide], the concentration for half-maximal inhibition (IC50) was found to be 30 nM.

As to `CC(=O)Nc1ncc(CN2C[C@@H](Cc3noc(C)n3)C[C@@H]2C)s1` [Example 4-13, N-(5-(((2S,4R)-2-methyl-4-((5-methyl-1,2,4-oxadiazol-3-yl)methyl)pyrrolidin-1-yl)methyl)thiazol-2-yl)acetamide], the concentration for half-maximal inhibition (IC50) is 1.9 nM.

As to `CC(=O)Nc1ncc(CN2CCCC(Cn3cc(C(C)C)cn3)C2)s1` (stereo not drawn) [Example 4-7, N-(5-((3-((4-isopropyl-1H-pyrazol-1-yl)methyl)piperidin-1-yl)methyl)thiazol-2-yl)acetamide], the IC50 is 380 nM.

As to `CC(=O)Nc1ncc(CN2CCCC(Cn3cc(C(F)(F)F)cn3)C2)s1` (stereo not drawn) [Example 4-3, N-(5-((3-((4-(trifluoromethyl)-1H-pyrazol-1-yl)methyl)piperidin-1-yl)methyl)thiazol-2-yl)acetamide], the 50% inhibitory concentration (IC50) worked out at 960 nM.

Take `COc1cc(C[C@H]2C[C@@H](C)N(Cc3sc(NC(C)=O)nc3F)C2)ncn1` [Example 3-45, N-(4-fluoro-5-(((2R,4R)-4-((6-methoxypyrimidin-4-yl)methyl)-2-methylpyrrolidin-1-yl)methyl)thiazol-2-yl)acetamide]: the concentration for half-maximal inhibition (IC50) is 4.4 nM.

On to `CC(=O)Nc1ncc(CN2CCC(C)(Cc3ncc(F)cn3)C2)s1` (stereo not drawn) [Example 2-35, N-(5-((3-((5-fluoropyrimidin-2-yl)methyl)-3-methylpyrrolidin-1-yl)methyl)thiazol-2-yl)acetamide], for which the half-maximal inhibitory concentration (IC50) was 1600 nM.

In the case of `CC(=O)Nc1ncc(CN2CCC[C@@H](Cc3ncc(F)cn3)C2)s1` [Example 2-33, N-[5-[[(3S)-3-[(5-fluoropyrimidin-2-yl)methyl]-1-piperidyl]methyl]thiazol-2-yl]acetamide], the 50% inhibitory concentration (IC50) was 122 nM.

Turning to `COc1ccc(CC2CCCN(Cc3cnc(NC(C)=O)s3)C2)nc1` (stereo not drawn) [Example 1-10, N-(5-((3-((5-methoxypyridin-2-yl)methyl)piperidin-1-yl)methyl)thiazol-2-yl)acetamide], the IC50 was found to be 20 nM.

Consider `CC(=O)Nc1ncc(CN2CCCC(Cc3nccs3)C2)s1` (stereo not drawn) [Example 1-39, N-(5-((3-(thiazol-2-ylmethyl)piperidin-1-yl)methyl)thiazol-2-yl)acetamide], for which the half-inhibitory concentration (IC50) was found to be 11 nM.

Take `COc1cc(C[C@@H]2C[C@@H](C)N(Cc3sc(NC(C)=O)nc3F)C2)ncn1` [Example 3-43, N-(4-fluoro-5-(((2R,4S)-4-((6-methoxypyrimidin-4-yl)methyl)-2-methylpyrrolidin-1-yl)methyl)thiazol-2-yl)acetamide]: the IC50 turned out to be 87 nM.

Consider `COc1cc(C[C@H]2CCN(Cc3sc(NC(C)=O)nc3F)C2)ccn1` [Example 3-32, (S)—N-(4-fluoro-5-((3-((2-methoxypyridin-4-yl)methyl)pyrrolidin-1-yl)methyl)thiazol-2-yl)acetamide], for which the concentration for half-maximal inhibition (IC50) was found to be 8.9 nM.

Take `CC(=O)Nc1ncc(CN2CCCC(Cc3noc(C)n3)C2)s1` (stereo not drawn) [Example 4-19, N-(5-((3-((5-methyl-1,2,4-oxadiazol-3-yl)methyl)piperidin-1-yl)methyl)thiazol-2-yl)acetamide]: the IC50 was 9.3 nM.

On to `CC(=O)Nc1ncc(CN2CCCC(Cc3cccc(C)n3)C2)s1` (stereo not drawn) [Example 1-29, N-(5-((3-((6-methylpyridin-2-yl)methyl)piperidin-1-yl)methyl)thiazol-2-yl)acetamide], for which the IC50 was determined as 2 nM.

In the case of `CC(=O)Nc1ncc(CN2CCC(Cc3ncc(F)cn3)C2C)s1` (stereo not drawn) [Example 2-42, N-(5-((3-((5-fluoropyrimidin-2-yl)methyl)-2-methylpyrrolidin-1-yl)methyl)thiazol-2-yl)acetamide], the IC50 was 250 nM.
